Results reported in patent US20220112187A1, “PYRAZOLOPYRIDINE AMINE COMPOUNDS FOR THE TREATMENT OF AUTOIMMUNE DISEASE” (Hoffmann-La Roche Inc., priority 2018, published 2022).

What follows are compounds tested against T1, human TLR7 (Homo sapiens, UniProt Q9NYK1) (assay: HEK293-Blue-hTLR-7 cells assay (SEAP reporter, R848 stimulation)). Details: HEK293-Blue-hTLR7 cells, R848 ligand, 20 hrs incubation.
T1 sequence (Q9NYK1 27-1049): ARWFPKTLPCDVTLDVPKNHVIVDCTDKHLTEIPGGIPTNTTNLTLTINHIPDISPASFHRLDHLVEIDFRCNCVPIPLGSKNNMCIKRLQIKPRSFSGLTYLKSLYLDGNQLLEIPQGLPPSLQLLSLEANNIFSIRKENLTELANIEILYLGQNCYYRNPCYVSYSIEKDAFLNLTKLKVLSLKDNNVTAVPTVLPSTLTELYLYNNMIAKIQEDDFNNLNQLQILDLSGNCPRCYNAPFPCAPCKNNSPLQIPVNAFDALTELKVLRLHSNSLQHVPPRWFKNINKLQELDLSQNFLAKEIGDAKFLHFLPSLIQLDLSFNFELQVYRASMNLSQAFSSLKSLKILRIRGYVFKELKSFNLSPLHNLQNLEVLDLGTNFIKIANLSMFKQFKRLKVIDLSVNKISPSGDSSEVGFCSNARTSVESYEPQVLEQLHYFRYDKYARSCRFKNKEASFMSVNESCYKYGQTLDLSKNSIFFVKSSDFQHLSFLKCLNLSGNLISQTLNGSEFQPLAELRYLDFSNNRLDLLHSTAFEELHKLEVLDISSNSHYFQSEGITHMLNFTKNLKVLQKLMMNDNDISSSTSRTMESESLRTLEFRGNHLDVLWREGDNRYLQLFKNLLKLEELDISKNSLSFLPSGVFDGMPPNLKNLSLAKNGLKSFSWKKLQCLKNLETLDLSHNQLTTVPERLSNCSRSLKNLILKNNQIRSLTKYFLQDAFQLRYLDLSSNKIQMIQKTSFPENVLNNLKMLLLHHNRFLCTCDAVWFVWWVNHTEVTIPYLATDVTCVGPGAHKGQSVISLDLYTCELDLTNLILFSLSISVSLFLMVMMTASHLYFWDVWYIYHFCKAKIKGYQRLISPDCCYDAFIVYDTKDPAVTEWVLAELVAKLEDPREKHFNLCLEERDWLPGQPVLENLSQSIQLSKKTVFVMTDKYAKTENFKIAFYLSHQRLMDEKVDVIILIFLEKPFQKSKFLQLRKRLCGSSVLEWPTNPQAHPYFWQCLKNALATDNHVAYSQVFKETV
Assay type: cell-based
Text: A stable HEK293-Blue-hTLR-7 cell line was purchased from InvivoGen (Cat. #: hkb-htlr7, San Diego, Calif., USA). These cells were originally designed for studying the stimulation of human TLR7 by monitoring the activation of NF-κB. A SEAP (secreted embryonic alkaline phosphatase) reporter gene was placed under the control of the IFN-β minimal promoter fused to five NF-κB and AP-1-binding sites. The SEAP was induced by activating NF-κB and AP-1 via stimulating HEK-Blue hTLR7 cells with TLR7 ligands. Therefore the reporter expression was declined by TLR7 antagonist under the stimulation of a ligand, such as R848 (Resiquimod), for incubation of 20 hrs. The cell culture supernatant SEAP reporter activity was determined using QUANTI-Blue™ kit (Cat. #: rep-qb1, Invivogen, San Diego, Ca, USA) at a wavelength of 640 nm, a detection medium that turns purple or blue in the presence of alkaline phosphatase.
HEK293-Blue-hTLR7 cells were incubated at a density of 250,000˜450,000 cells/mL in a volume of 170 μL in a 96-well plate in Dulbecco's Modified Eagle's medium (DMEM) containing 4.5 g/L glucose, 50 U/mL penicillin, […], […], 2 mM L-glutamine, 10% (v/v) heat-inactivated fetal bovine serum with addition of 20 μL test compound in a serial dilution in the presence of final DMSO at 1% and 10 μL of 20 uM R848 in above DMEM, perform incubation under 37° C. in a CO2 incubator for 20 hrs. Then 20 μL of the supernatant from each well was incubated with 180 μL Quanti-blue substrate solution at 37° C. for 2 hrs and the absorbance was read at 620˜655 nm using a spectrophotometer. The signalling pathway that TLR7 activation leads to downstream NF-κB activation has been widely accepted, and therefore similar reporter assay was modified for evaluating TLR7 antagonist.
`C[C@@H]1CN(c2ccc(C#N)n3nccc23)C[C@H](CN2C[C@H]3CC[C@@H](N(C)C)[C@H]3C2)O1` (racemic) [Example 75, 4-[(2S,6R)-2-[[4-(dimethylamino)-3,3a,4,5,6,6a-hexahydro-1H-cyclopenta[c]pyrrol-2-yl]methyl]-6-methyl-morpholin-4-yl]pyrazolo[1,5-a]pyridine-7-carbonitrile] gave an IC50 of 680 nM.
`CC1CNCCN1C[C@H]1CN(c2ccc(C#N)n3nccc23)C[C@@H](C)O1` (single isomer, unassigned) [Example 50A] was tested, and the IC50 was 230 nM.
`CC1CNCCN1C[C@H]1CN(c2ccc(C#N)n3nccc23)C[C@@H](C)O1` (single isomer, unassigned) [Example 50B] showed an IC50 of 140 nM.
In the case of `C[C@@H]1CN(c2ccc(C#N)n3nccc23)C[C@H](CN2CCC(N3CCN(C)CC3)CC2)O1` [Example 1, 4-[(2R,6S)-2-methyl-6-[[4-(4-methylpiperazin-1-yl)-1-piperidyl]methyl]morpholin-4-yl]pyrazolo[1,5-a]pyridine-7-carbonitrile], the IC50 is reported as 95 nM.
`C[C@@H]1CN(c2ccc(C#N)n3nccc23)C[C@H](CN2CCC3(CCNCC3)CC2)O1` [Example 3, 4-[(2S,6R)-2-(3,9-diazaspiro[5.5]undecan-3-ylmethyl)-6-methyl-morpholin-4-yl]pyrazolo[1,5-a]pyridine-7-carbonitrile] gave an IC50 of 240 nM.
`C[C@@H]1CN(c2ccc(C#N)n3nccc23)C[C@H](CN2CCC(N3CCCCCC3)CC2)O1` [Example 4, 4-[(2S,6R)-2-[[4-(azepan-1-yl)-1-piperidyl]methyl]-6-methyl-morpholin-4-yl]pyrazolo[1,5-a]pyridine-7-carbonitrile] gave an IC50 of 180 nM.
`C[C@@H]1CN(c2ccc(C#N)n3nccc23)C[C@H](CN2CCNCC2)O1` [Example 5, 4-[(2R,6S)-2-methyl-6-(piperazin-1-ylmethyl)morpholin-4-yl]pyrazolo[1,5-a]pyridine-7-carbonitrile] gave an IC50 of 54 nM.
In the case of `C[C@@H]1CN(c2ccc(C#N)n3nccc23)C[C@H](CN2CCC3(CCNC3)C2)O1` (stereo partly drawn) [Example 6, 4-[(2S,6R)-2-(2,7-diazaspiro[4.4]nonan-2-ylmethyl)-6-methyl-morpholin-4-yl]pyrazolo[1,5-a]pyridine-7-carbonitrile], the IC50 is reported as 200 nM.
Work on `C[C@@H]1CN(c2ccc(C#N)n3nccc23)C[C@H](CNC2CCN(C)CC2)O1` [Example 7, 4-[(2R,6S)-2-methyl-6-[[(1-methyl-4-piperidyl)amino]methyl]morpholin-4-yl]pyrazolo[1,5-a]pyridine-7-carbonitrile] yielded an IC50 of 260 nM.
For `C[C@@H]1CN(c2ccc(C#N)n3nccc23)C[C@H](CN2CC3(CCCNC3)C2)O1` [Example 10, 4-[(2S,6R)-2-(2,8-diazaspiro[3.5]nonan-2-ylmethyl)-6-methyl-morpholin-4-yl]pyrazolo[1,5-a]pyridine-7-carbonitrile], the IC50 was 83 nM.
`C[C@@H]1CN(c2ccc(C#N)n3nccc23)C[C@H](CN2CC3(CC(N)C3)C2)O1` [Example 11, 4-[(2S,6R)-2-[(6-amino-2-azaspiro[3.3]heptan-2-yl)methyl]-6-methyl-morpholin-4-yl]pyrazolo[1,5-a]pyridine-7-carbonitrile] gave an IC50 of 160 nM.
For `C[C@@H]1CN(c2ccc(C#N)n3nccc23)C[C@H](CN2CCC(CN)CC2)O1` [Example 12, 4-[(2S,6R)-2-[[4-(aminomethyl)-1-piperidyl]methyl]-6-methyl-morpholin-4-yl]pyrazolo[1,5-a]pyridine-7-carbonitrile], the IC50 was 240 nM.
Work on `C[C@@H]1CN(c2ccc(C#N)n3nccc23)C[C@H](CN2CCC(CCN)CC2)O1` [Example 13, 4-[(2S,6R)-2-[[4-(2-aminoethyl)-1-piperidyl]methyl]-6-methyl-morpholin-4-yl]pyrazolo[1,5-a]pyridine-7-carbonitrile] yielded an IC50 of 400 nM.
In the case of `C[C@@H]1CN(c2ccc(C#N)n3nccc23)C[C@H](CN2CCN(C(=O)CN)CC2)O1` [Example 14, 4-[(2S,6R)-2-[[4-(2-aminoacetyl)piperazin-1-yl]methyl]-6-methyl-morpholin-4-yl]pyrazolo[1,5-a]pyridine-7-carbonitrile], the IC50 is reported as 460 nM.
In the case of `C[C@@H]1CN(c2ccc(C#N)n3nccc23)C[C@H](CN2CCN(C)CC2)O1` [Example 15, 4-[(2R,6S)-2-methyl-6-[(4-methylpiperazin-1-yl)methyl]morpholin-4-yl]pyrazolo[1,5-a]pyridine-7-carbonitrile], the IC50 is reported as 77 nM.
Work on `C[C@@H]1CN(c2ccc(C#N)n3nccc23)C[C@H](CN2CCC(N3CCCCC3)CC2)O1` [Example 16, 4-[(2R,6S)-2-methyl-6-[[4-(1-piperidyl)-1-piperidyl]methyl]morpholin-4-yl]pyrazolo[1,5-a]pyridine-7-carbonitrile] yielded an IC50 of 100 nM.
`C[C@@H]1CN(c2ccc(C#N)n3nccc23)C[C@H](CN2CCC(N)CC2)O1` [Example 17, 4-[(2S,6R)-2-[(4-amino-1-piperidyl)methyl]-6-methyl-morpholin-4-yl]pyrazolo[1,5-a]pyridine-7-carbonitrile] gave an IC50 of 89 nM.
`C[C@@H]1CN(c2ccc(C#N)n3nccc23)C[C@H](CN2CCC3(CCNCC3)C2)O1` [Example 18, 4-[(2S,6R)-2-(2,8-diazaspiro[4.5]decan-2-ylmethyl)-6-methyl-morpholin-4-yl]pyrazolo[1,5-a]pyridine-7-carbonitrile] gave an IC50 of 200 nM.
`C[C@@H]1CN(c2ccc(C#N)n3nccc23)C[C@H](CN2CCC3(CCNC3)CC2)O1` [Example 19, 4-[(2S,6R)-2-(2,8-diazaspiro[4.5]decan-8-ylmethyl)-6-methyl-morpholin-4-yl]pyrazolo[1,5-a]pyridine-7-carbonitrile] showed an IC50 of 130 nM.
`C[C@@H]1CN(c2ccc(C#N)n3nccc23)C[C@H](CN2CC3(CCNC3)CC2=O)O1` (stereo partly drawn) [Example 20, 4-[(2R,6R)-2-methyl-6-[(3-oxo-2,7-diazaspiro[4.4]nonan-2-yl)methyl]morpholin-4-yl]pyrazolo[1,5-a]pyridine-7-carbonitrile] gave an IC50 of 650 nM.
With `C[C@@H]1CN(c2ccc(C#N)n3nccc23)C[C@H](CN2CCC3(CCNC3)C2=O)O1` (stereo partly drawn) [Example 21, 4-[(2R,6R)-2-methyl-6-[(1-oxo-2,7-diazaspiro[4.4]nonan-2-yl)methyl]morpholin-4-yl]pyrazolo[1,5-a]pyridine-7-carbonitrile] the IC50 was 98 nM.
In the case of `C[C@@H]1CN(c2ccc(C#N)n3nccc23)C[C@H](CN2CC3CNCC3C2)O1` (stereo partly drawn) [Example 22, 4-[(2S,6R)-2-(2,3,3a,4,6,6a-hexahydro-1H-pyrrolo[3,4-c]pyrrol-5-ylmethyl)-6-methyl-morpholin-4-yl]pyrazolo[1,5-a]pyridine-7-carbonitrile], the IC50 is reported as 100 nM.
`C[C@@H]1CN(c2ccc(C#N)n3nccc23)C[C@H](CN2CCCC3(CCCNC3)C2)O1` (stereo partly drawn) [Example 23, 4-[(2S,6R)-2-(2,8-diazaspiro[5.5]undecan-2-ylmethyl)-6-methyl-morpholin-4-yl]pyrazolo[1,5-a]pyridine-7-carbonitrile] gave an IC50 of 180 nM.
`C[C@@H]1CN(c2ccc(C#N)n3nccc23)C[C@H](CN2CC3(CCNCC3)C2)O1` [Example 24, 4-[(2S,6R)-2-(2,7-diazaspiro[3.5]nonan-2-ylmethyl)-6-methyl-morpholin-4-yl]pyrazolo[1,5-a]pyridine-7-carbonitrile] was tested, and the IC50 was 100 nM.
In the case of `C[C@@H]1CN(c2ccc(C#N)n3nccc23)C[C@H](CN2CCC3(CCCNC3)C2)O1` (stereo partly drawn) [Example 25, 4-[(2S,6R)-2-(2,9-diazaspiro[4.5]decan-2-ylmethyl)-6-methyl-morpholin-4-yl]pyrazolo[1,5-a]pyridine-7-carbonitrile], the IC50 is reported as 110 nM.
